Measured values: US20080008774A1, “Use Of Plants, Plant Extracts And Nature-Identical Components From Plants To Affect The Rumen Fermentation And To Improve The Energy And Protein Retention Of Ruminants” (DSM IP ASSETS B.V., priority 2004, published 2008)

Legend:
ruminal fermentation [1] = assay: Reading methods for general effects on fermentation (RPT, maize silage); format: cell-based, lactating dairy cows; details: Reading diet; for Cumulative gas, 24 h / Fermentation efficiency: control = 100; for Dry matter digestion: value in absence of plant material = 100
Description: A series of thirteen consecutive fermentations, one per week, was undertaken using the Reading Pressure Technique [RPT], to identify potential effects from including these test materials on the fermentation and degradation characteristics of a basal forage [maize silage]. All materials were examined in triplicate and at two inclusion levels [100 and 400 mg g^−1 DM substrate], with the exception of β-myrcene [10 and 40 mg g^−1 inclusion levels]. The maize silage was pre-dried and milled to pass a 2 mm screen. A total of 1.0 g blended substrate [silage plus substrate] was placed in each fermentation flask. Buffered incubation medium [90 ml] was then added, the flasks sealed and stored overnight at room temperature. Prior to inoculation with prepared rumen fluid, flask contents were raised to 39° C. Rumen fluid was obtained manually [hand-squeezed contents] prior to feeding [07.00 h] from two lactating dairy cows offered a maize/grass silage : concentrate [60:40] ration ad libitum. The fluid was filtered through two layers of muslin and held under CO2 at 39° C. until use. Ten ml prepared fluid was added to each flask and these incubated at 39° C. for the duration of the study. Six negative controls [buffered medium plus rumen fluid only] were included in each run to correct gas values and degradation residues for direct rumen fluid effects. In addition un-supplemented maize silage [1.0 g flask^−1] was included in all runs [six flasks per run]. Results within studies were expressed relative to the positive control values. Headspace gas pressure readings were obtained 2, 4, 6, 8, 10, 12, 14, 16, 18, 21 and 24 hours post-inoculation. Following the last measurement approximately 3.0 ml fermentation medium was sampled from each flask and bulked by test material/inclusion level and stored frozen [−20° C.] until later analysis for VFA composition using a Varian 3600 GC. Fermentation residues were recovered by filtering flask contents through 60 ml Gooch crucibles [porosity 1, 100 to 160 μm] under light vacuum. The residues were then dried [100° C. for 24 hours], weighed, ashed [500° C. overnight] and reweighed. The quantity of dry matter [DM] and organic matter [OM] determined were used to assess iDMD and iOMD [in vitro DM and OM degradation, respectively]. The extent [ml gas g^−1 OM incubated] and rate of fermentation gas release [ml h^−1] were generated using a previously derived quadratic function to convert pressure to volume. Feed fermentation efficiency [FE] was estimated as iDMD [g kg^−1]/cumulative gas [ml] release at 24 h post-inoculation. Statistical differences between treatment means and the positive control [maize silage alone] were assessed using Students T-test and significance declared at […].

ruminal fermentation [2] = assay: León methods for general effects on fermentation (batch cultures); format: cell-based, sheep; details: Leon diet; amount in feed 10 %; 24 h; control = 100
Description: Rumen cannulated sheep fed on a diet consisting of 75% alfalfa hay and 25% barley (free access to vitamin-mineral supplements and water) were used as donors for rumen fluid. Rumen fluid was collected just before the morning meal. The substrate used for the batch cultures consisted of 50% alfalfa hay, 40% grass hay and 10% barley grain, milled in a hammer mill with a 1-mm screen. The amount of substrate used was 500 mg, and inclusion rate of the test plant was 10% (ca. 50 mg). Both were weighed into serum bottles, where 50 ml of buffered rumen fluid (containing 10 ml of filtered rumen fluid and 40 ml of the medium described by Goering & Van Soest, 1970) were dispensed an-aerobically. The bottles were sealed and incubated at 39° C. After 24 h of incubation, the ensuing measurements were recorded: • Total gas production (ml), using a pressure transducer and collecting the gas in a calibrated syringe. • pH in the incubation medium. • Volatile fatty acids concentration in the incubation medium, by GC (VFA was also measured at inoculation time to calculate VFA production after 24 h). • DM incubation residue, by filtering the bottle contents in sintered crucibles and weighing the residue after drying. Thereafter, the neutral detergent fibre (NDF) content of the residue was determined to calculate the amount of un-degraded NDF. From this, DM and NDF disappearance were estimated. Three replicates per plant were incubated, and blanks (no substrate no plant) and controls (500 mg substrate without any plant, and 550 mg substrate without any plant) were used.

ruminal digesta [3] = assay: Proteolytic activity of ruminal digesta, Method 1 (14C-casein); format: cell-based, sheep; details: 2.5 mg/ml, 1 h; value in absence of plant material = 100
Description: Method 1. Strained ruminal fluid from the same sheep was used to determine proteolytic activity using the ^14C-casein method of Wallace (1983). Samples were added to a final concentration of 2.5 mg/ml, and an incubation time of 1 h was used.

ruminal fermentation [4] = assay: Hohenheim methods for general effects on fermentation (RPT, grass silage); format: cell-based, non-lactating Holstein cows; details: Hohenheim diet; amount in feed 10 %; control = 100
ruminal ciliate protozoa = assay: Bacteriolytic activity of ruminal ciliate protozoa (breakdown of 14C-leucine-labelled Selenomonas ruminantium in strained ruminal fluid); format: cell-based, sheep
Description: The rate of breakdown of [^14C]leucine-labelled Selenomonas ruminantium was determined by incubating strained ruminal fluid in vitro with labelled S. ruminantium in the presence of 5 mM unlabelled L-leucine as described previously (Wallace & McPherson, 1987). Under these conditions, the great majority of bacterial protein breakdown is caused by the ingestion and digestion of bacteria by ciliate protozoa. The samples were, unless stated otherwise, added at a concentration of 5 mg/ml. The sheep received a mixed grass hay:concentrate diet (Frumholtz et al., 1989).

[5] = system: lactic acid producing bacteria; assay: Acidosis assay (pH and lactic acid, milled wheat grain, 48-h fermentation); format: cell-based, cows; details: 100 mg/g DM in milled wheat grain (β-myrcene 10 mg/g), control = 100
Description: A model was used in which the decrease in incubation medium pH and the concentration of lactic acid produced, relative to the controls over a 48-h fermentation period provided an indication of the ability of the test substrates to offset potential acidotic effects. In this study milled wheat grain [2 mm] was used as the basal substrate and the test materials included at 100 mg g^−1 DM [or 10 mg g^−1 DM β-myrcene]. As before 1.0 g total substrate was added to each flask. To enhance lactic acid production, the buffer solution prepared was diluted by 50 percent. This was to ensure that the buffering capacity of the incubation medium was exceeded and the resulting decrease in pH encouraged growth of Lactobacilli and other lactic acid producing bacteria. Rumen fluid was obtained and prepared as previously described except that the two cows used were offered an early lactation ration with a high level of coarse milled wheat. Fluid pH measurements were made one hour after inoculation [start pH] then after a further 23 and 47 hours, by inserting a pH electrode directly into each flask. Immediately following the last measurement approximately 3.0 ml fluid were taken from each flask, bulked by sample and stored frozen at −20° C. until analyzed enzymatically for L [+] lactic acid. Results are presented as absolute differences relative to the controls. […]

ruminal digesta [6] = assay: Methane formation by ruminal digesta (León incubations, GC); format: cell-based, sheep
Description: A representative sample of the gas produced was taken for subsequent analysis. Sampling was conducted using special gas-tight glass syringes fitted with a valve allowing for sample locking and storage. The sample was collected directly from the headspace, after inserting the needle through the septum of the stopper, taking a sample in the syringe and closing the valve. This sample was collected after measuring total gas production, assuming that gas composition was the same in the gas released and in that remaining in the headspace. Methane concentration in the gas produced was determined by gas chromatography. The gas sample (300 to 500 μl) was injected directly from the gas-tight syringe to the corresponding port. The GC parameter settings used for the analysis were: • Instrument: Shimadzu GC-14B provided with a flame ionisation detector (FID) • Column: 2.3 meters length×2.1 mm internal diameter stainless steel column packed with 60/80 mesh Carboxen 1000 stationary phase • Carrier gas: Helium, flow rate (100 kPa), Constant flow mode • Temperatures: • Detector: FID. Temperature 200° C., Synthetic Air flow rate (50 kPa), H2 flow rate (50 kPa) • Injector: Temperature 200° C. • Column-oven: 170° C. […] The standard curve was established by plotting a linear regression of the standard quantities injected of methane versus the area of the peaks to obtain the response factor.

[7] = amount in feed 10 % (β-myrcene 10 mg/g)
[8] = amount in feed 40 % (β-myrcene 40 mg/g)

## C=CC(=C)CCC=C(C)C [Sample 13, β-Myrcene]
Ruminal fermentation [1]; [7]
  Cumulative gas, 24 h: 100
  Fermentation efficiency: 103
  Dry matter digestion: 103
Ruminal fermentation [1]; [8]
  Cumulative gas, 24 h: 82
  Fermentation efficiency: 109
  Dry matter digestion: 89
Ruminal fermentation [2]
  App. digestibility: 93
  C3/C2: 105
  Digestibility: 102
  Fermentation efficiency: 109
  Gas production: 97
  Microbial biomass: 115
  TVFA: 96
Ruminal digesta [3]
  Proteolysis, Method 1: 110
Ruminal fermentation [4]
  C3/C2: 104
  Digestibility: 100
  Fermentation efficiency: 99
  Gas production: 101
  SCFA: 103
Ruminal ciliate protozoa
  bacteriolytic activity of ciliate protozoa / protozoal activity (in words): moderate inhibiting effect
Ruminal ciliate protozoa; 5 mg/ml, value in absence of plant material = 100
  Protozoal activity: 68
[5]; 24 h
  Acidity, 24 h: 105
[5]; 48 h
  Acidity, 48 h: 115
Ruminal digesta [6]
  methane production / methanogenic activity (in words): decrease
Ruminal digesta [6]; 10% of feed, value in absence of plant material = 100
  Methane formation, Leon: 90
